The text below walks through data of patent US20220226337A1 (Gilead Sciences, Inc., priority 2018, published 2022).

This assay concerns the target T1, α4β7 integrin interaction with MadCAM-1 (RPMI8866 cells) (Homo sapiens, UniProt P13612+P26010).
T1 construct: α4β7 integrin expressing cells; endogenous in cells; host or cells: RPMI8866 cells
T1 sequence (P13612 34-1032): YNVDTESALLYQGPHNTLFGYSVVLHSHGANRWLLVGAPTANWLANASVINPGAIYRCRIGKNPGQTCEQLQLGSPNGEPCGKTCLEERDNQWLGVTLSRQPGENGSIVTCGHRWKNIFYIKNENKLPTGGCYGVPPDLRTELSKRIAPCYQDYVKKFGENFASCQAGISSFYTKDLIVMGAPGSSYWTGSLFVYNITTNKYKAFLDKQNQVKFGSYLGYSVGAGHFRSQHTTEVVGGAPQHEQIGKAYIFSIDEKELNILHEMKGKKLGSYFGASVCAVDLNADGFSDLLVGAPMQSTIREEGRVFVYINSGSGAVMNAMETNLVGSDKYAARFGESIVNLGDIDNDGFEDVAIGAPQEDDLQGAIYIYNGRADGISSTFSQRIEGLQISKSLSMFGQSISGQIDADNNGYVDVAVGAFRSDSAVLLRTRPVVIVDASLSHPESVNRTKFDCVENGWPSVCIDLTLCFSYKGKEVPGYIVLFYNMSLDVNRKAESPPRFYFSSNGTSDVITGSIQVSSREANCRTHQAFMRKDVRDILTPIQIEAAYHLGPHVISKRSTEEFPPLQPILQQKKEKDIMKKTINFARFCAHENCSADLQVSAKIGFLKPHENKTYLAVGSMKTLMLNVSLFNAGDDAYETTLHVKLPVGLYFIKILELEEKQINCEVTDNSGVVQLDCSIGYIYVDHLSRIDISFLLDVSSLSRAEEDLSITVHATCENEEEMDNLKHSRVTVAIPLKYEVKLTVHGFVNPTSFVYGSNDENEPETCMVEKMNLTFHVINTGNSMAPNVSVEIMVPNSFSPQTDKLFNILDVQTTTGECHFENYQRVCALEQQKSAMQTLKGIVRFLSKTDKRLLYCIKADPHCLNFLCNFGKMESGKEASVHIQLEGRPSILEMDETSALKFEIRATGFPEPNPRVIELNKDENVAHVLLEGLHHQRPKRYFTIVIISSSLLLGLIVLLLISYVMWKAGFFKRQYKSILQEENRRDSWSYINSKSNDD
T1 sequence (P26010 20-798): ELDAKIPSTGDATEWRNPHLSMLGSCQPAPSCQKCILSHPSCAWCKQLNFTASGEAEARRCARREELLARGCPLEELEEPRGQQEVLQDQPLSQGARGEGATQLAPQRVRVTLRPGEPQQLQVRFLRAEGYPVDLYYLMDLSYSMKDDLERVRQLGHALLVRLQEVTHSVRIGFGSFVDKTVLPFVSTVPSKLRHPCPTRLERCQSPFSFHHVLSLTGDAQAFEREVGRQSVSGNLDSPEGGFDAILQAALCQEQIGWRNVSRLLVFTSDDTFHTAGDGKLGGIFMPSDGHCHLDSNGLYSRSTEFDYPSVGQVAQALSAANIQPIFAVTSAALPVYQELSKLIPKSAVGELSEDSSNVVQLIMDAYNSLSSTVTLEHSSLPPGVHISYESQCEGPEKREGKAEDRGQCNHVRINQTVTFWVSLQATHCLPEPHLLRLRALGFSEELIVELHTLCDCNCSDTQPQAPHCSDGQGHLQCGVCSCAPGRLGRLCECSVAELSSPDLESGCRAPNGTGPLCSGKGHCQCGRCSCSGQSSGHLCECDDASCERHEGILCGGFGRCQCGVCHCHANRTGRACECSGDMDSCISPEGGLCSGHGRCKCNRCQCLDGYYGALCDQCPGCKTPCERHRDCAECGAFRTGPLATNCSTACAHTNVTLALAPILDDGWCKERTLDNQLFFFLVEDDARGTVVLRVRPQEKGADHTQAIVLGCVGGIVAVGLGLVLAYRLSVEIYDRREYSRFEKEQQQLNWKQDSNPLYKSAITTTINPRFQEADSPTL
The assay can be described thus: α4β7 Integrin Cell Capture Assay. It counts as cell-based. As to conditions: capture of α4β7 integrin expressing RPMI8866 cells on recombinant MadCAM-1 extracellular domain-coated plate; 0.5 mM MnCl2. The method, then: The potency of inhibitors in preventing α4β7 integrin interaction with MadCAM-1 was measured by monitoring the capture of α4β7 integrin expressing cells on a recombinant MadCAM-1 extracellular domain-coated plate. 384-well plates (Corning 3702) were coated with MadCAM-1 extracellular domain by dispensing 20 μL of MAdCAM-1 at 1.0 μg/mL per well and incubating overnight at 4° C. The plates were then washed with PBS and blocked with 3% BSA for 2 hours before being washed again. RPMI8866 cells were spun down and re-suspended in assay medium (DMEM+0.5% FBS+0.5 mM MnCl2) at a density of 0.5×10^6 cells/mL. The cells were then dispensed (60 μL/well) to a 384-well plate (Greiner 781280) that was previously spotted with 60 nL of test compound per well. The plates were incubated at 37° C. for 1 hour. 50 μL of cells were transferred to the blocked, MadCAM-1-coated plates and incubated for 30 minutes at 37° C. 10 μL of 12% glutaraldehyde containing Hoechst 33342 (0.06 mg/mL) was added to the cells (2% glutaraldehyde and 0.01 mg/mL final concentrations). The plates were incubated for 90 minutes at room temperature. The plates were then washed 3 times with 70 μL of PBS per well and imaged on a Cellomics ArrayScan instrument. The cells that were bound to the plate were counted and plotted against the compound concentration to determine the EC50 of the test compounds.
As a reminder, the EC50 is the concentration giving half of the maximal effect. For the compound `CN1CCCc2c(C[C@H](NC(=O)c3c(F)cccc3F)C(=O)O)ccc(-c3c(Cl)cc(F)cc3Cl)c21` [Example 102, (S)-3-(8-(2,6-dichloro-4-fluorophenyl)-1-methyl-1,2,3,4-tetrahydroquinolin-5-yl)-2-(2,6-difluorobenzamido)propanoic acid], the concentration giving a half-maximal response (EC50) was 267000 pM.

`Cc1cc(C)n(C)c(=O)c1-c1ccc(C[C@H](NC(=O)c2c(F)cc(N3CCOC[C@@H]3C(F)(F)F)cc2F)C(=O)O)c2c1OCCC2` [Example 161]: the EC50 is 364 pM.

On to `Cc1c(-c2ccc(C[C@H](NC(=O)c3c(F)cccc3F)C(=O)O)c3c2CCOC3)c(=O)n(C)c2ccc(F)cc12` [Example 35, (S)-2-(2,6-difluorobenzamido)-3-(5-(6-fluoro-1,4-dimethyl-2-oxo-1,2-dihydroquinolin-3-yl)isochroman-8-yl)propanoic acid], for which the EC50 worked out at 1960 pM.

As for `CC[C@@H](Nc1cc(F)c(C(=O)N[C@@H](Cc2ccc(-c3c(C)n(C)c(=O)n(C)c3=O)c3c2OCCO3)C(=O)O)c(F)c1)C(F)(F)F` [Example 10, (S)-2-(2,6-difluoro-4-(((R)-1,1,1-trifluorobutan-2-yl)amino)benzamido)-3-(8-(1,3,6-trimethyl-2,4-dioxo-1,2,3,4-tetrahydropyrimidin-5-yl)-2,3-dihydrobenzo[b][1,4]dioxin-5-yl)propanoic acid], the EC50 came out at 864 pM.

Regarding `Cc1c(-c2ccc(C[C@H](NC(=O)c3c(F)cc(N4CCOC[C@@H]4C(F)(F)F)cc3F)C(=O)O)c3c2OCCO3)c(=O)n(C)c(=O)n1C` (single isomer, unassigned) [Example 8], the EC50 came to 301 pM.

For `Cc1cccc(F)c1C(=O)N[C@@H](Cc1ccc(-c2c(Cl)cc(F)cc2Cl)c2c1OCCO2)C(=O)O` [Example 7, (S)-3-(8-(2,6-dichloro-4-fluorophenyl)-2,3-dihydrobenzo[b][1,4]dioxin-5-yl)-2-(2-fluoro-6-methylbenzamido)propanoic acid], the EC50 is 37800 pM.

As for `Cc1cc(N2CCOC[C@@H]2C(F)(F)F)cc(F)c1C(=O)N[C@@H](Cc1ccc(-c2c(C)ncn(C)c2=O)c2c1CCCO2)C(=O)O` [Example 134], the EC50 is 374 pM.

Take `CS(=O)(=O)Nc1cc(F)c(C(=O)N[C@@H](Cc2ccc(-c3c(Cl)cc(F)cc3Cl)c3c2CCCO3)C(=O)O)c(F)c1` [Example 92, (S)-3-(8-(2,6-dichloro-4-fluorophenyl)chroman-5-yl)-2-(2,6-difluoro-4-(methylsulfonamido)benzamido)propanoic acid]: the EC50 came out at 9190 pM.

With `Cc1cc(N2CCOC[C@@H]2C(F)(F)F)cc(F)c1C(=O)N[C@@H](Cc1ccc(-c2nc(C)c(C)n(C)c2=O)c2c1CCC2)C(=O)O` [Example 199], the EC50 was 190 pM.

In the case of `Cc1nc(-c2ccc(C[C@H](NC(=O)c3c(F)cc(N4CCC(F)(F)C[C@H]4C(F)(F)F)cc3F)C(=O)O)c3c2OCCC3)c(=O)n(C)c1C` [Example 143], the EC50 was 4720 pM.

In the case of `CC[C@@H](Nc1cc(F)c(C(=O)N[C@@H](Cc2ccc(-c3c(OC)cc(C)n(C)c3=O)c3c2COC3)C(=O)O)c(F)c1)C(F)(F)F` [Example 23, (S)-2-(2,6-difluoro-4-(((R)-1,1,1-trifluorobutan-2-yl)amino)benzamido)-3-(7-(4-methoxy-1,6-dimethyl-2-oxo-1,2-dihydropyridin-3-yl)-1,3-dihydroisobenzofuran-4-yl) propanoic acid], the concentration giving a half-maximal response (EC50) came to 692 pM.

Consider `COc1cc(C)n(C)c(=O)c1-c1ccc(C[C@H](NC(=O)c2c(F)cc(N3CCOC[C@@H]3C(F)(F)F)cc2F)C(=O)O)c2c1OCCC2` [Example 46, (S)-2-(2,6-difluoro-4-((R)-3-(trifluoromethyl)morpholino)benzamido)-3-(8-(4-methoxy-1,6-dimethyl-2-oxo-1,2-dihydropyridin-3-yl)chroman-5-yl)propanoic acid], for which the EC50 was determined as 250 pM.

For the compound `Cc1cc(N2CCOC[C@@H]2C(F)(F)F)cc(F)c1C(=O)N[C@@H](Cc1ccc(-c2cnc(C)n(C)c2=O)c2c1CCCO2)C(=O)O` [Example 128], the 50% effective concentration (EC50) was found to be 446 pM.

On to `COc1cccc(OC)c1-c1ccc(CC(NC(=O)c2c(F)cc(NS(=O)(=O)c3ccc(-n4cncn4)cc3)cc2F)C(=O)O)c2c1CN(C(C)=O)CC2` (stereo not drawn) [Example 107], for which the EC50 stood at 812 pM.

As to `Cc1cc(N2CCOC[C@@H]2C(F)(F)F)cc(F)c1C(=O)N[C@@H](Cc1ccc(-c2c(C)c(C(F)(F)F)cn(C)c2=O)c2c1CCC2)C(=O)O` [Example 196], the 50% effective concentration (EC50) is 264 pM.

On to `O=C(N[C@@H](Cc1ccc(-c2c(Cl)cc(F)cc2Cl)c2c1[C@@H]1C[C@@H]1CO2)C(=O)O)c1c(Cl)cccc1Cl` (single isomer, unassigned) [Example 82], for which the EC50 was 42000 pM.

For the compound `CC[C@@H](Nc1cc(F)c(C(=O)N[C@@H](Cc2ccc(-c3c(C(F)(F)F)cc(C)n(C)c3=O)c3c2CCCO3)C(=O)O)c(F)c1)C(F)(F)F` (single isomer, unassigned) [Example 44], the EC50 came out at 290 pM.

Regarding `Cc1c(-c2ccc(C[C@H](NC(=O)c3c(F)cccc3F)C(=O)O)c3c2CCC3)c(=O)n(C)c2ccc(F)cc12` [Example 105, (S)-2-(2,6-difluorobenzamido)-3-(7-(6-fluoro-1,4-dimethyl-2-oxo-1,2-dihydroquinolin-3-yl)-2,3-dihydro-1H-inden-4-yl)propanoic acid], the EC50 came out at 2440 pM.

For `CC[C@@H](Nc1cc(F)c(C(=O)N[C@@H](Cc2ccc(-c3c(C)n(C)c(=O)n(C)c3=O)c3c2COC3)C(=O)O)c(F)c1)C(F)(F)F` [Example 15, (S)-2-(2,6-difluoro-4-(((R)-1,1,1-trifluorobutan-2-yl)amino)benzamido)-3-(7-(1,3,6-trimethyl-2,4-dioxo-1,2,3,4-tetrahydropyrimidin-5-yl)-1,3-dihydroisobenzofuran-4-yl)propanoic acid], the EC50 was 939 pM.

With `CC[C@@H](Nc1cc(F)c(C(=O)N[C@@H](Cc2ccc(-c3cc4ccccc4n(C)c3=O)c3c2COC3)C(=O)O)c(F)c1)C(F)(F)F` [Example 21, (S)-2-(2,6-difluoro-4-(((R)-1,1,1-trifluorobutan-2-yl)amino)benzamido)-3-(7-(1-methyl-2-oxo-1,2-dihydroquinolin-3-yl)-1,3-dihydroisobenzofuran-4-yl)propanoic acid], the EC50 turned out to be 6000 pM.

As for `Cc1cc(N2CCOC[C@@H]2C(F)(F)F)cc(F)c1C(=O)N[C@@H](Cc1ccc(-c2c(Cl)cc(C)n(C)c2=O)c2c1CCCO2)C(=O)O` (atropisomer, axis not shown) [Example 137], the concentration giving a half-maximal response (EC50) stood at 89 pM.
